Measured values from patent US7582674B2, “Nutraceutical compositions and use thereof” (DSM IP Assets B.V., priority 2003, dated 2009).

Legend:
[1] = system: murine macrophages RAW264.7; experiment: Inhibition of NO (nitrite, Griess reaction) production in LPS-stimulated macrophages; type: cell-based
Protocol: (§1) In order to induce an in vitro ‘inflammatory response’, murine macrophages RAW264.7 were seeded into microtiter plates or 12-well plates and stimulated with lipopolysaccharide (LPS) without or with graded amounts of the test substances. Vehicle concentrations (i.e. DMSO) were kept constant. Culture supernatants were harvested after appropriate periods of time (4 to 24 hours). Prostaglandin E2 (PGE2) and nitrite produced from nitric oxide (NO) secreted into the culture medium were quantified by ELISA and the Griess reaction, respectively. The percentage of inhibition of PGE2 or NO production at a given concentration of the test substances (compared to maximal production by LPS-stimulated cells) was calculated.

[2] = system: murine macrophages RAW264.7; experiment: Inhibition of PGE2 (ELISA) production in LPS-stimulated macrophages; type: cell-based; details: combination = actually determined inhibition
Protocol: as §1

Q: With CCC=CCC=CCC=CCC=CCC=CCCCC(=O)O [EPA, 5,8,11,14,17-eicosapentaenoic acid] as the molecule, how does the inhibition at 12.5 µM ([1]; Mus musculus, RAW264.7, Table 2, LPS stimulated macrophages, EPA 12.5 μM) read?
A: 12.9%

Q: Which results are given for Oc1ccc(C=Cc2cc(O)cc(O)c2)cc1 [Resveratrol, resveratrol]?
A: inhibition at 10 µM ([2]; Mus musculus, RAW264.7, Table 1, each substance at 10 μM): 26.8%; inhibition at 10 µM ([1]; Mus musculus, RAW264.7, Table 1, LPS-stimulated macrophages, each substance at 10 μM, combination = actually determined inhibition): 8.3%; inhibition at 2 µM ([1]; Mus musculus, RAW264.7, Table 2, LPS stimulated macrophages, Resveratrol 2 μM): 10%

Q: (−)-Epigallocatechin gallate [EGCG] was tested. Which “% inhibition PGE2” value ([2]; Table 1, each substance at 10 μM) did it give?
A: 1.8%

Q: What about the “% inhibition NO” value ([1]; Table 1, LPS-stimulated macrophages, each substance at 10 μM, combination = actually determined inhibition) of the same molecule?
A: 4.4%
